{"source": "ChEMBL document CHEMBL1201862", "about": "“PubChem BioAssay data set” (2004)", "experiment_in_all_cases": "growth of human tumour cells (NCI), 48 h", "key": {"[1]": {"test_system": "RPMI-8226"}, "[2]": {"test_system": "786-0"}, "[3]": {"test_system": "CCRF-CEM"}, "[4]": {"test_system": "HOP-62"}, "[5]": {"test_system": "SN12C"}, "[6]": {"test_system": "BT-549"}, "[7]": {"test_system": "OVCAR-5"}, "[8]": {"test_system": "MCF7"}, "[9]": {"test_system": "CAKI-1"}, "[10]": {"test_system": "HCT-116"}, "[11]": {"test_system": "SNB-19"}, "[12]": {"test_system": "SR"}, "[13]": {"test_system": "HCT-15"}, "[14]": {"test_system": "SK-MEL-2"}, "[15]": {"test_system": "HL-60"}, "[16]": {"test_system": "HCC 2998"}, "[17]": {"test_system": "MDA-MB-435"}, "[18]": {"test_system": "COLO 205"}, "[19]": {"test_system": "T47D"}, "[20]": {"test_system": "DU-145"}, "[21]": {"test_system": "A549"}, "[22]": {"test_system": "HT-29"}, "[23]": {"test_system": "MDA-N"}, "[24]": {"test_system": "RXF 393"}, "[25]": {"test_system": "SF-539"}, "[26]": {"test_system": "SF-295"}, "[27]": {"test_system": "TK-10"}, "[28]": {"test_system": "Malme-3M"}, "[29]": {"test_system": "SK-MEL-28"}, "[30]": {"test_system": "SF-268"}, "[31]": {"test_system": "UO-31"}, "[32]": {"test_system": "MOLT-4"}, "[33]": {"test_system": "A498"}, "[34]": {"test_system": "U-251"}, "[35]": {"test_system": "M14"}, "[36]": {"test_system": "SW-620"}, "[37]": {"test_system": "MDA-MB-231"}, "[38]": {"test_system": "OVCAR-3"}, "[39]": {"test_system": "PC-3"}, "[40]": {"test_system": "KM12"}, "[41]": {"test_system": "NCI-H460"}, "[42]": {"test_system": "K562"}, "[43]": {"test_system": "NCI-H23"}, "[44]": {"test_system": "HOP-92"}, "[45]": {"test_system": "UACC-257"}, "[46]": {"test_system": "ACHN"}, "[47]": {"test_system": "LOX IMVI"}, "[48]": {"test_system": "NCI/ADR-RES"}, "[49]": {"test_system": "OVCAR-4"}, "[50]": {"test_system": "UACC-62"}, "[51]": {"test_system": "OVCAR-8"}, "[52]": {"test_system": "Hs-578T"}, "[53]": {"test_system": "IGROV-1"}, "[54]": {"test_system": "EKVX"}, "[55]": {"test_system": "SNB-75"}, "[56]": {"test_system": "SK-MEL-5"}, "[57]": {"test_system": "SK-OV-3"}, "[58]": {"test_system": "NCI-H226"}}, "note": "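Assay format: 96-well plates, 48-hour exposure. GI50: concentration for 50% inhibition of growth.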 Calls of active or inactive are those of the source. Rule as the data show it: active = GI50 up to about 1.1 µM and inactive = higher.", "data": [{"smiles": "COc1ccc(/N=N/c2c(C)c(C#N)c(=S)n(C3OC(COC(C)=O)C(OC(C)=O)C(OC(C)=O)C3OC(C)=O)c2-c2ccccc2)cc1", "note": "(stereo unspecified)", "values": [{"measurement": "GI50", "setting": "[1]", "value": "5.65 µM (inactive)"}, {"measurement": "GI50", "setting": "[2]", "value": "3.12 µM (inactive)"}, {"measurement": "GI50", "setting": "[3]", "value": "4.94 µM (inactive)"}, {"measurement": "GI50", "setting": "[4]", "value": "11.6 µM (inactive)"}, {"measurement": "GI50", "setting": "[5]", "value": "7.96 µM (inactive)"}, {"measurement": "GI50", "setting": "[6]", "value": "5.33 µM (inactive)"}, {"measurement": "GI50", "setting": "[7]", "value": "13.2 µM (inactive)"}, {"measurement": "GI50", "setting": "[8]", "value": "4.62 µM (inactive)"}, {"measurement": "GI50", "setting": "[9]", "value": "9.48 µM (inactive)"}, {"measurement": "GI50", "setting": "[10]", "value": "4.32 µM (inactive)"}, {"measurement": "GI50", "setting": "[11]", "value": "11 µM (inactive)"}, {"measurement": "GI50", "setting": "[12]", "value": "4.07 µM (inactive)"}, {"measurement": "GI50", "setting": "[13]", "value": 14.9, "unit": "µM"}, {"measurement": "GI50", "setting": "[14]", "value": "8.04 µM (inactive)"}, {"measurement": "GI50", "setting": "[15]", "value": "3.13 µM (inactive)"}, {"measurement": "GI50", "setting": "[16]", "value": "23.4 µM (inactive)"}, {"measurement": "GI50", "setting": "[17]", "value": "10.3 µM (inactive)"}, {"measurement": "GI50", "setting": "[18]", "value": "6.93 µM (inactive)"}, {"measurement": "GI50", "setting": "[19]", "value": "19.4 µM (inactive)"}, {"measurement": "GI50", "setting": "[20]", "value": "7.03 µM (inactive)"}, {"measurement": "GI50", "setting": "[21]", "value": "8.18 µM (inactive)"}, {"measurement": "GI50", "setting": "[22]", "value": "5.94 µM (inactive)"}, {"measurement": "GI50", "setting": "[23]", "value": "9.1 µM (inactive)"}, {"measurement": "GI50", "setting": "[24]", "value": "11.5 µM (inactive)"}, {"measurement": "GI50", "setting": "[25]", "value": "> 10 µM (inactive)"}, {"measurement": "GI50", "setting": "[26]", "value": "5.85 µM (inactive)"}, {"measurement": "GI50", "setting": "[27]", "value": "19.2 µM (inactive)"}, {"measurement": "GI50", "setting": "[28]", "value": "7.23 µM (inactive)"}, {"measurement": "GI50", "setting": "[29]", "value": "7.98 µM (inactive)"}, {"measurement": "GI50", "setting": "[30]", "value": "9.59 µM (inactive)"}, {"measurement": "GI50", "setting": "[31]", "value": "39.8 µM (inactive)"}, {"measurement": "GI50", "setting": "[32]", "value": "3.08 µM (inactive)"}, {"measurement": "GI50", "setting": "[33]", "value": "1.5 µM (inactive)"}, {"measurement": "GI50", "setting": "[34]", "value": "10.7 µM (inactive)"}, {"measurement": "GI50", "setting": "[35]", "value": "1.94 µM (inactive)"}, {"measurement": "GI50", "setting": "[36]", "value": "2.92 µM (inactive)"}, {"measurement": "GI50", "setting": "[37]", "value": "6.04 µM (inactive)"}, {"measurement": "GI50", "setting": "[38]", "value": "13.9 µM (inactive)"}, {"measurement": "GI50", "setting": "[39]", "value": "5.98 µM (inactive)"}, {"measurement": "GI50", "setting": "[40]", "value": "8.43 µM (inactive)"}, {"measurement": "GI50", "setting": "[41]", "value": "4.76 µM (inactive)"}, {"measurement": "GI50", "setting": "[42]", "value": "4.52 µM (inactive)"}, {"measurement": "GI50", "setting": "[43]", "value": "15.6 µM (inactive)"}, {"measurement": "GI50", "setting": "[44]", "value": "4.01 µM (inactive)"}, {"measurement": "GI50", "setting": "[45]", "value": "22.4 µM (inactive)"}, {"measurement": "GI50", "setting": "[46]", "value": "46.9 µM (inactive)"}, {"measurement": "GI50", "setting": "[47]", "value": "5.42 µM (inactive)"}, {"measurement": "GI50", "setting": "[48]", "value": "3.39 µM (inactive)"}, {"measurement": "GI50", "setting": "[49]", "value": "3.15 µM (inactive)"}]}, {"smiles": "CCCCC/C(C=O)=C\\c1ccccc1", "values": [{"measurement": "GI50", "setting": "[1]", "value": "> 100 µM (inactive)"}, {"measurement": "GI50", "setting": "[2]", "value": "> 100 µM (inactive)"}, {"measurement": "GI50", "setting": "[50]", "value": "> 100 µM (inactive)"}, {"measurement": "GI50", "setting": "[3]", "value": "80.4 µM (inactive)"}, {"measurement": "GI50", "setting": "[4]", "value": "> 100 µM (inactive)"}, {"measurement": "GI50", "setting": "[6]", "value": "> 100 µM (inactive)"}, {"measurement": "GI50", "setting": "[51]", "value": "> 100 µM (inactive)"}, {"measurement": "GI50", "setting": "[8]", "value": "> 100 µM (inactive)"}, {"measurement": "GI50", "setting": "[9]", "value": "> 100 µM (inactive)"}, {"measurement": "GI50", "setting": "[10]", "value": "> 100 µM (inactive)"}, {"measurement": "GI50", "setting": "[11]", "value": "> 100 µM (inactive)"}, {"measurement": "GI50", "setting": "[12]", "value": "> 100 µM (inactive)"}, {"measurement": "GI50", "setting": "[13]", "value": "> 100", "unit": "µM"}, {"measurement": "GI50", "setting": "[14]", "value": "> 100 µM (inactive)"}, {"measurement": "GI50", "setting": "[15]", "value": "> 100 µM (inactive)"}, {"measurement": "GI50", "setting": "[16]", "value": "> 100 µM (inactive)"}, {"measurement": "GI50", "setting": "[17]", "value": "> 100 µM (inactive)"}, {"measurement": "GI50", "setting": "[52]", "value": "> 100 µM (inactive)"}, {"measurement": "GI50", "setting": "[18]", "value": "> 100 µM (inactive)"}, {"measurement": "GI50", "setting": "[19]", "value": "> 100 µM (inactive)"}, {"measurement": "GI50", "setting": "[20]", "value": "> 100 µM (inactive)"}, {"measurement": "GI50", "setting": "[53]", "value": "> 100 µM (inactive)"}, {"measurement": "GI50", "setting": "[54]", "value": "> 100 µM (inactive)"}, {"measurement": "GI50", "setting": "[22]", "value": "> 100 µM (inactive)"}, {"measurement": "GI50", "setting": "[24]", "value": "> 100 µM (inactive)"}, {"measurement": "GI50", "setting": "[25]", "value": "> 100 µM (inactive)"}, {"measurement": "GI50", "setting": "[26]", "value": "> 100 µM (inactive)"}, {"measurement": "GI50", "setting": "[27]", "value": "> 100 µM (inactive)"}, {"measurement": "GI50", "setting": "[29]", "value": "> 100 µM (inactive)"}, {"measurement": "GI50", "setting": "[30]", "value": "> 100 µM (inactive)"}, {"measurement": "GI50", "setting": "[31]", "value": "> 100 µM (inactive)"}, {"measurement": "GI50", "setting": "[32]", "value": "65.8 µM (inactive)"}, {"measurement": "GI50", "setting": "[33]", "value": "> 100 µM (inactive)"}, {"measurement": "GI50", "setting": "[34]", "value": "> 100 µM (inactive)"}, {"measurement": "GI50", "setting": "[55]", "value": "> 100 µM (inactive)"}, {"measurement": "GI50", "setting": "[35]", "value": "> 100 µM (inactive)"}, {"measurement": "GI50", "setting": "[36]", "value": "> 100 µM (inactive)"}, {"measurement": "GI50", "setting": "[37]", "value": "> 100 µM (inactive)"}, {"measurement": "GI50", "setting": "[39]", "value": "> 100 µM (inactive)"}, {"measurement": "GI50", "setting": "[40]", "value": "> 100 µM (inactive)"}, {"measurement": "GI50", "setting": "[56]", "value": "> 100 µM (inactive)"}, {"measurement": "GI50", "setting": "[41]", "value": "> 100 µM (inactive)"}, {"measurement": "GI50", "setting": "[57]", "value": "> 100 µM (inactive)"}, {"measurement": "GI50", "setting": "[42]", "value": "20.3 µM (inactive)"}, {"measurement": "GI50", "setting": "[58]", "value": "> 100 µM (inactive)"}, {"measurement": "GI50", "setting": "[43]", "value": "> 100 µM (inactive)"}, {"measurement": "GI50", "setting": "[44]", "value": "> 100 µM (inactive)"}, {"measurement": "GI50", "setting": "[45]", "value": "> 100 µM (inactive)"}, {"measurement": "GI50", "setting": "[46]", "value": "> 100 µM (inactive)"}, {"measurement": "GI50", "setting": "[47]", "value": "> 100 µM (inactive)"}, {"measurement": "GI50", "setting": "[48]", "value": "> 100 µM (inactive)"}, {"measurement": "GI50", "setting": "[49]", "value": "> 100 µM (inactive)"}]}]}
